e = 2'-O-(2-methoxyethyl) (MOE); d = 2'-deoxy (DNA)
What was measured:
mir-15a pri-miRNA = mir-15a pri-miRNA expression in T47D cells (real-time RT-PCR); assay type: cell-based, human; conditions: real-time RT-PCR
In short: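 T47D cells transfected with 100 nM uniform 2′-MOE or gapmer oligomers. Pri-miRNA measured by real-time RT-PCR with a mir-15a-specific primer/probe set, normalized to 5.8S rRNA, expressed as percentage of untreated control RNA levels.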

DIO mice = test: Diet-induced obesity (DIO) mice; assay type: in vivo; conditions: 25 mg/kg s.c. twice weekly

**Q.** Which “mir-15a pri-miRNA expression % UTC” value (mir-15a pri-miRNA) does the source give for “129690 (antisense TTAGAATACGTCGCGTTATG; sugars from the 5' end e5 d10 e5, all phosphorothioate, methylation of C not given here) [compound 129690]” here?
**A.** 121 % UTC

**Q.** How did the “liver toxicity (plasma transaminase levels, weekly)” value (DIO mice) turn out when “CTAGTGGTCCTAAACATTTCAC (chemistry not given here) [ISIS 327878, uniform 2′-MOE PS; targets mir-203]” was run?
**A.** did not appear to cause liver toxicity

Reference: US8178506B2, “Oligomeric compounds and compositions for use in modulation of small non-coding RNAs” (Regulus Therapeutics Inc., priority 2003, dated 2012)
